pIC50: −log10 of the molar value.
Assays:
[1] = test system: CCNE1 amplified COV318 cells; experiment: Cell cycle analysis by FACS after p16 knockdown and CDK2 inhibitor treatment; type: cell-based, human; conditions: 100 nM, 16 hours
Description: To confirm the role of p16 in CDK2-sensitivity of CCNE-amplified cells, COV318 cells were treated with control or p16-specific siRNA.
Human cyclin E1 (CCNE1) amplified ovarian cell lines OVCAR3, COV318, Fu-OV1, endometrial cell line KLE, gastric cell lines MKN1, AGS, NCIN87, and CCNE1 non-amplified ovarian cell lines COV504, OV56, Igrov1 were cultured in RPMI 1640 medium. The complete growth medium was supplemented with 10% FBS, 0.1 mM non-essential amino acids, 2 mM L-glutamine, 100 units/mL penicillin G and 100 μg/mL streptomycin in 37° C. humidified incubator and an atmosphere of 5% CO2 in air. Fu-OV1 line was purchased from Leibniz-Institute DSMZ—German Collection of Microorganisms and Cell Cultures; MKN1 was purchased from Japanese Cancer Research Resources Bank; and the rest of cell lines were purchased from American Type Culture Collection. For transfection, cells were seeded into 6-well for 24 hours and transiently transfected by Lipofectamine 2000 Reagent (Thermo Fisher, 11668027). […]
Bulk DNA was stained with DAPI. Compound-treated and DMSO treated control cells were acquired with CytoFlex (Beckman Coulter) and were analyzed using the FlowJo software. […]

[2] = test system: Rb phosphorylated on serine 780 in CCNE1 amplified COV318 cells; experiment: CDK2 pRb (S780) HTRF cellular assay; type: cell-based; conditions: Homo sapiens, overnight treatment, read-out: IC50 in p-RB S780 HTRF cellular assay
Description: CDK2 pRb (5780) HTRF cellular assay enables the quantitative detection of Rb phosphorylated on […] in CCNE1 amplified COV318 cells. The assay comprised two antibodies: Europium cryptate labeled anti-Phospho-Rb […] antibody (donor) and d2 labeled anti-Rb antibody (acceptor). In brief, COV318 cells were seeded into the wells of 96-well plate at a density of 25,000 per well with 9-point, 3-fold serial diluted compounds and cultured overnight at 37 degree with 5% CO2. The final concentrations of compounds start from 3 μM. […] After 2h of incubation at room temperature, HTRF signals were measured on the PHERAstar microplate reader (BMG Labtech), using 340 nm as excitation wavelength, a 620 nm filter for the Europium donor fluorescence, and a 665-nm filter for the acceptor fluorescence detection. HTRF signals were calculated as the HTRF ratio (ratio of fluorescence measured at 665 nm and 620 nm)×10000.

[3] = test system: Rb phosphorylation at S780 in CCNE1-amplified cell lines (OVCAR3 and COV318); experiment: Western blot of Rb phosphorylation at S780, CCNE1-amplified cell lines; type: cell-based, human; conditions: various doses, 1 or 15 hours
Description: (§1) The effect of CDK4/6-inhibition on Rb phosphorylation at 5780 in CCNE1-amplified versus CCNE1-non-amplified cell lines was evaluated. […] One or 15 hours after treatment, the cells were harvested and total protein was extracted and analyzed by western blot (FIG. 8).
(§2) Whole cell extracts were prepared using RIPA buffer (Thermo Scientific, 89900) with a Halt Protease and Phosphatase Inhibitor Cocktail (Thermo Scientific, 78440). Protein concentration was quantified with a BCA Protein Assay Kit (Thermo Scientific, 23225) and 40 μg of protein lysates were loaded for SDS-PAGE using precast gradient gels (Bio-Rad, Hercules, No. 456-1094). Samples were diluted in 5× Laemmli buffer (300 mM Tris-HCl pH 6.8, 10% SDS (w/v), 5% 2-mercaptoethanol, 25% glycerol (v/v), 0.1% bromophenol blue w/v) and boiled for 5 minutes. […] of proteins were separated by 8-15% SDS-PAGE and transferred onto polyvinylidene fluoride (PVDF) membranes. Unspecific binding sites on the PVDF membranes were blocked with 5% non-fat milk in TBST (20 mM Tris-HCl, pH 7.6, 137 mM NaCl, 1% Tween-20). […] Images were captured by Luminescence/Fluorescence Imaging System Odyssey CLx Imager (LI-COR).

[4] = test system: CCNE1-non-amplified cell lines (COV504, OV56, Igrov1); experiment: Cell cycle analysis by FACS upon CDK4/6 inhibition, CCNE1-non-amplified cell lines; type: cell-based, human
Description: (§3) The effect of CDK4/6-inhibition in CCNE1-amplified versus CCNE1-non-amplified cell lines was evaluated.
(§4) A similar experiment was performed in a larger set of CCNE1-amplified cell lines (COV318 and OVCAR3) and CCNE1-non-amplified cell lines (COV504, OV56, and Igrov1) (FIG. 6).
(§5) The complete growth medium was supplemented with 10% FBS, 0.1 mM non-essential amino acids, 2 mM L-glutamine, 100 units/mL penicillin G and 100 μg/mL streptomycin in 37° C. humidified incubator and an atmosphere of 5% CO2 in air. Fu-OV1 line was purchased from Leibniz-Institute DSMZ—German Collection of Microorganisms and Cell Cultures; MKN1 was purchased from Japanese Cancer Research Resources Bank; and the rest of cell lines were purchased from American Type Culture Collection.
(§6) Bulk DNA was stained with DAPI. Compound-treated and DMSO treated control cells were acquired with CytoFlex (Beckman Coulter) and were analyzed using the FlowJo software.

[5] = test system: CCNE1-amplified cell lines (COV318, OVCAR3); experiment: Cell cycle analysis by FACS upon CDK4/6 inhibition, CCNE1-amplified cell lines; type: cell-based, human
Description: as §3, §4, §5, §6

[6] = test system: Rb phosphorylation at S780 in CCNE1-non-amplified cell lines (COV504 and OV56); experiment: Western blot of Rb phosphorylation at S780, CCNE1-non-amplified cell lines; type: cell-based, human; conditions: various doses, 1 or 15 hours
Description: as §1, §2

Compound | Percentage of S phase cells ([1]; control siRNA-treated COV318 cells) | Percentage of S phase cells as compared to DMSO control ([1]; p16 knocked down COV318 cells) | pIC50 [2] | Rb phosphorylation at S780 (western blot) [3] | Inhibition of proliferation (cell cycle analysis by FACS) ([4]; CCNE1-non-amplified cells (COV504), increasing concentrations, 16 hours) | Percentage of cells at the S phase as compared to DMSO ([4]; COV504, OV56, Igrov1, 16 hours after treatment) | Inhibition of proliferation (cell cycle analysis by FACS) ([5]; CCNE1-amplified cells (OVCAR3), increasing concentrations, 16 hours) | Percentage of cells at the S phase as compared to DMSO ([5]; COV318 and OVCAR3, 16 hours after treatment) | Rb phosphorylation at S780 (western blot) [6]
C[C@@]1(O)CCC[C@H]1n1c(=O)ccc2cnc(NC3CCN(S(C)(=O)=O)CC3)nc21 [Compound A, 8-((1R,2R)-2-hydroxy-2-methylcyclopentyl)-2-((1-(methylsulfonyl)piperidin-4-yl)amino)pyrido[2,3-d]pyrimidin-7(8H)-one] | significantly decreased | not significantly decreased | 7.43 |  |  |  |  |  | 
CC(=O)c1c(C)c2cnc(Nc3ccc(N4CCNCC4)cn3)nc2n(C2CCCC2)c1=O [Palbociclib] |  |  | < 5.52 | not in CCNE1-amplified cell lines | dose-dependent inhibition of the proliferation | decreased in CCNE1-non-amplified cell lines in a dose-dependent fashion | not in CCNE1-amplified cells | not significantly different | blocked Rb phosphorylation

Source: US11427567B2, “Imidazolyl pyrimidinylamine compounds as CDK2 inhibitors” (Incyte Corporation, priority 2019, dated 2022)
